Read-outs that look alike come from different tables or passages of the source.
Key:
Trichoplusia ni [1] = assay: In-planta insecticidal efficacy on sprayed cabbage plants, Pylon® (chlorfenapyr) with unsaturated aliphatic acids (Colby synergy factor); type: in vivo; settings: 0.06 mg/mL aliphatic acid (salt)
Method: A stock solution was prepared for trans-2-hexenoic acid (available from Sigma-Aldrich, St. […] Green cabbage plants (Brassica oleracea var. capitate, Danish Ballhead cultivar) were grown from seed (available from West Coast Seeds, Delta, BC, Canada) in potting soil for 4 weeks in a pest-free indoor growing environment. At 4 weeks of age, each cabbage plant was sprayed with 10 mL of treatment solution using a hand pump sprayer bottle, and allowed to dry. […] The treated cabbage plants were then placed in nylon isolation tents and kept in an indoor growing environment and the larvae were left to feed on the plants. In one set of cabbage plants, the larvae were left to feed for 48 hours, and then the number of surviving larvae were observed and survival rates (%) were determined. In a second separate set of cabbage plants, the larvae were left to feed for 72 hours, and then the number of surviving larvae were observed and survival rates (%) were determined. Each experiment was repeated at least 3 times. […] In accordance with the Colby Formula, the expected efficacy, E (%), of a combination treatment of compounds A and B in concentrations a and b, respectively, can be determined by evaluating: […] The existence and extent of synergy present in a combination treatment can be determined according to the Colby Formula by evaluating a Synergy Factor, SF=(Observed efficacy)/(Expected efficacy).

Trichoplusia ni [2] = assay: In-vitro insecticidal efficacy on artificial diet, spinosad (Entrust® SC) with aliphatic acids (Abbott efficacy, Colby synergy factor); type: in vivo; settings: Entrust SC 0.034 ppm ([…] spinosad); aliphatic acid (salt) 500 ppm; after 5 days; Abbott-corrected
Method: An artificial diet suitable for Trichoplusia ni (cabbage looper caterpillar) was prepared from a commercially available general purpose lepidoptera artificial diet premix (General Purpose Lepidoptera Diet available from Frontier Scientific Services, Newark, DE) mixed in agar media and then heated to liquify the media. The liquid artificial diet media was then used to fill each well of a 96-well treatment plate with 200 uL of artificial diet media, which was allowed to solidify at room temperature and stored at approximately 4 C.
A 20 uL treatment sample of each treatment formulation was then placed on top of the solidified artificial diet media in each well of the 96 well plates and allowed to dry overnight. The following day, one neonate Trichoplusia ni (cabbage looper) larva (hatched from eggs obtained from the Natural Resource Canada insect research facility in Sault-Ste-Marie, ON, Canada) was added to each well of the plate, and their mortality rate was evaluated after 5 days, to determine the insecticidal efficacy of the Entrust® SC treatment alone, each exemplary unsaturated or saturated aliphatic acid (and salt) alone, and each combination of spinosad (as Entrust® SC) and unsaturated or saturated aliphatic acid (and salt). Each experiment contained 3 replicates.
(§1) While for SF<1, antagonism is present and for SF=1, the efficacy of the compounds is merely additive.

Fusarium oxysporum = assay: Synergistic Growth Inhibition Assay (MIC and FIC index, 96-well, resazurin); type: cell-based; settings: Fusarium oxysporum, Compound B alone
Summary of the method: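 Checkerboard dilutions of pesticidal active plus C6–C10 (or C11/C12) aliphatic acid in 96-well plates; growth scored by resazurin colour change, optionally visual.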

Botrytis cinerea = assay: as above; type: cell-based; settings: Botrytis cinerea, 48 h, Table 58; Compound B alone; 48 hours incubation; read-out: MIC (B)
Summary of the method: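 Checkerboard microdilution of pesticidal active ingredient combined with C6–C10 (or C11/C12) aliphatic acid against Botrytis cinerea, with growth read by resazurin colour change plus visual check. FIC index = sum of each agent's concentration in the inhibiting well divided by its MIC alone; 1 denotes additivity.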

Trichoplusia ni [3] = assay: In-planta insecticidal efficacy on sprayed cabbage plants, spinosad (Entrust® SC) with octanoic acid (Abbott efficacy, Colby synergy factor); type: in vivo; settings: octanoic acid alone at 100 ppm; Abbott-corrected
Method: Green cabbage plants (Brassica oleracea var. capitate, Danish Ballhead cultivar) were grown from seed (available from West Coast Seeds, Delta, BC, Canada) in potting soil for 4-6 weeks in a pest-free indoor growing environment. At between 4-6 weeks of age, each cabbage plant was sprayed with 20 mL of treatment solution using a pressurized CO2 sprayer, and allowed to dry.
as §1

SMILES: CC=CC=CC(=O)[O-].[K+] [2,4-hexadienoic acid, K-salt]
- Observed Efficacy (%) (Trichoplusia ni [1]; after 48 hours): 13%
- Observed Efficacy (%) (Trichoplusia ni [1]; after 72 hours): 0%

SMILES: CCCC=CCC(=O)O [3-heptanoic acid]
- Observed Efficacy, W (%) (Trichoplusia ni [2]): 4.5%

SMILES: C/C=C/C=C/C(=O)[O-].[K+] [(2E,4E)-2,4 hexadienoic acid, K-salt]
- Observed Efficacy, W (%) (Trichoplusia ni [2]): 9.1%

SMILES: CCCCCCCC(=O)[O-].[K+] [Octanoic acid, K-salt]
- Observed Efficacy, W (%) (Trichoplusia ni [2]): 0%

SMILES: CCCCCCCC(=O)O [Octanoic acid, octanoic acid]
- MIC (Fusarium oxysporum; 24 h, Table 7, 24 hour incubation, read-out: MIC(B)): 569 µg/mL
- MIC (Fusarium oxysporum; 24 h, Table 9, 24 hour incubation, read-out: MIC (B)): 569 µg/mL
- MIC (Fusarium oxysporum; Table 8, read-out: MIC (B)): 1140 µg/mL
- MIC (Botrytis cinerea): 625 µg/mL
- Observed Efficacy, W (%) (Trichoplusia ni [3]): 0%
